Assay results taken from patent publication US4426390A, “Novel β-lactam compounds, process for producing thereof, and use thereof as medicines” (Sanraku-Ocean Co., Ltd., priority 1980, dated 1984).
In brackets after ≈: the same amount, converted by molar mass. Like-named read-outs stand apart in the source and are kept apart here.

How the values were obtained:
Type in all cases: cell-based
Proteus vulgaris GN76 [1] = test: Synergistic effect on MIC, microdilution transfer plate technique
Enterobacter cloacac 45 = test: Disc assay of synergy, inhibition zones
Description: (§1) (B) The presence or absence of synergy is visually checked by the size difference in inhibitory zones observed when the test drug is disc-assayedon an agar plate of a detector microbe and on an agar plate of the detector containing cephaloridine or benzylpenicillin, respectively.
(§2) One loopful of the stock culture of a test organism is inoculated in heat infusion broth (5 ml/tube), and grown at 37° C. for 18 hours. The culture broth is diluted to a final concentration of about 10^5 cells/ml in nutrient agar with or without benzyl penicillin or cephaloridine, and plated in a Petri dish with a diameter of 9 cm, as shown below.
(§3) Using the above-prepared agar plates, antibiotic PS-5 (100 μg/ml), antibiotic OA-6129B2 (5,6-trans OA-6129B) (100 μg/ml), benzylpenicillin (1000 μg/ml) and cephaloridine (1000 μg/ml) are subjected to disc assay.

[2] = system: Citrobacter Freundii GN346; test: Disc assay of synergy, inhibition zones; conditions: for zone of inhibition at 100 µg/mL: Citrobacter freundii
Description: as §1, §2, §3

Proteus vulgaris GN76 [3] = test: Disc assay of synergy, inhibition zones; conditions: for zone of inhibition at 100 µg/mL: Proteus vulgaris
Description: as §1, §2, §3

Serratia marccscens T55 = test: Disc assay of synergy, inhibition zones; conditions: for zone of inhibition at 100 µg/mL: Serratia
Description: as §1, §2, §3

[4] = system: Citrobacter Freundii GN346; test: Synergistic effect on MIC, microdilution transfer plate technique
E. coli RGN823 = test: MIC by agar dilution method; conditions: Escherichia coli, 37° C., 18 hours
Description: (§4) The MIC is measured by an agar dilution method based on the standard method of the Japanese Society of Chemotherapy (Japanese Society of Chemotherapy: The Revised Method of Determination of MIC Values, Chemotherapy 22, 1126-1128, […]). Specifically, the antibiotic is serially diluted with a 1/50 M phosphate buffer at a pH of 7.3 to prepare a twofold dilution series. One milliliter of each dilution and 9 ml of an agar medium (Heart Infusion Agar; a product of Difco Laboratories) are mixed and allowed to solidify in a Petri dish having a diameter of 9 cm. One loopful of the stock culture of the test microbe is inoculated in trypto-soy buillon (a product of Eiken Kagaku Co., Ltd.) and incubated at 37° C. for 18 hours. The resulting culture broth is diluted to a concentration of about 10^6 cells/ml with physiological saline and inoculated on the agar plate by means of a microplanter.

S. aureus Smith = test: MIC by agar dilution method; conditions: Staphylococcus aureus, 37° C., 18 hours
Description: as §4

Ser. marcesceus T55 = test: MIC by agar dilution method; conditions: 37° C., 18 hours
Description: as §4

[5] = system: Klebsiella pneumoniae K13; test: MIC by agar dilution method; conditions: 37° C., 18 hours
Description: as §4

S. epidermidis = test: MIC by agar dilution method; conditions: Staphylococcus epidermidis, 37° C., 18 hours
Description: as §4

[6] = system: Staphylococcus aureus 209P; test: MIC by agar dilution method; conditions: 37° C., 18 hours
Description: as §4

[7] = system: Pseudomonas aenginosa IFO3445; test: MIC by agar dilution method; conditions: 37° C., 18 hours
Description: as §4

Comamonas terrigena B996 = test: MIC by agar dilution method; conditions: 37° C., 18 hours
Description: as §4

[8] = system: Citrobacter Freundii GN346; test: MIC by agar dilution method; conditions: 37° C., 18 hours
Description: as §4

[9] = system: Enterobacter aerogenes E19; test: MIC by agar dilution method; conditions: Klebsiella aerogenes, 37° C., 18 hours
Description: as §4

[10] = system: Bacillus subtillis ATCC 6633; test: MIC by agar dilution method; conditions: Bacillus, ATCC6633, 18 h
Description: as §4

Ps. aeruginosa NCTC10490 = test: MIC by agar dilution method; conditions: Pseudomonas aeruginosa, 37° C., 18 hours
Description: as §4

P. rettgeri P7 = test: MIC by agar dilution method; conditions: Providencia rettgeri; P. rettgeri P7; agar dilution, 37° C., 18 hours; read-out: MIC
Description: as §4

Providencia sp. P8 = test: MIC by agar dilution method; conditions: Providencia sp. P8; agar dilution, 37° C., 18 hours; read-out: MIC
Description: as §4

Serratia marcesceus S18 = test: MIC by agar dilution method; conditions: 37° C., 18 hours
Description: as §4

Ent. cloacae 45 = test: MIC by agar dilution method; conditions: Enterobacter cloacae, 37° C., 18 hours
Description: as §4

Sarcina lutea S19 = test: MIC by agar dilution method; conditions: Micrococcus luteus, 37° C., 18 hours
Description: as §4

Ent. sp. E8 = test: MIC by agar dilution method; conditions: Ent. sp. E8; agar dilution, 37° C., 18 hours; read-out: MIC
Description: as §4

Escherichia coli K-12 = test: MIC by agar dilution method; conditions: K12; Escherichia coli K-12; agar dilution, 37° C., 18 hours; read-out: MIC
Description: as §4

P. vulgaris GN76 = test: MIC by agar dilution method; conditions: Proteus vulgaris, 37° C., 18 hours
Description: as §4

Alcaligenes Faecolis A1 = test: MIC by agar dilution method; conditions: Alcaligenes Faecolis A1; agar dilution, 37° C., 18 hours; read-out: MIC
Description: as §4

S. aureus Russell = test: MIC by agar dilution method; conditions: Staphylococcus aureus; S. aureus Russell; agar dilution, 37° C., 18 hours; read-out: MIC
Description: as §4

Proteus mirabilis P6 = test: MIC by agar dilution method; conditions: Proteus mirabilis P6; agar dilution, 37° C., 18 hours; read-out: MIC
Description: as §4

[11] = plate: + CER, disc OA-6129B2, PS-5 100 μg/ml, CER, PCG 1000 μg/ml
[12] = plate: + PCG, disc OA-6129B2, PS-5 100 μg/ml, CER, PCG 1000 μg/ml
[13] = plate: + PCG, reduced to 5 μg/ml (final concentration), disc OA-6129B2, PS-5 100 μg/ml, CER, PCG 1000 μg/ml
[14] = plate: None, disc OA-6129B2, PS-5 100 μg/ml, CER, PCG 1000 μg/ml

For O=C(Cc1cccs1)N[C@@H]1C(=O)N2C(C(=O)[O-])=C(C[n+]3ccccc3)CS[C@H]12 [CER, Cephaloridine], the MIC (Proteus vulgaris GN76 [1]; Proteus vulgaris, GN76, alone, heart infusion broth, 10^5 cells/ml) was 1250 µg/mL, the “MIC of CER in combination” value (Proteus vulgaris GN76 [1]; with OA-6129A 1.56 μg/ml) was 313 µg/mL and the “MIC of CER in combination” value (Proteus vulgaris GN76 [1]; with OA-6129A 6.25 μg/ml) was 39 µg/mL. The “MIC of CER in combination” value (Proteus vulgaris GN76 [1]; with OA-6129A 25 μg/ml) was < 5 µg/mL, the “MIC of CER in combination” value (Proteus vulgaris GN76 [1]; with OA-6129A 50 μg/ml) was < 5 µg/mL and the zone of inhibition at 100 µg/mL (Enterobacter cloacac 45; Enterobacter, 45, read-out: diameter of inhibition zones) was 0 mm. The “diameter of inhibition zones” value (Enterobacter cloacac 45; [11]) was 0 mm, the “diameter of inhibition zones” value (Enterobacter cloacac 45; [12]) was 0 mm and the zone of inhibition at 100 µg/mL ([2]; GN346, read-out: diameter of inhibition zones) was 0 mm. The “diameter of inhibition zones” value [2, 11] was 0 mm, the “diameter of inhibition zones” value [2, 12] was 0 mm and the zone of inhibition at 100 µg/mL (Proteus vulgaris GN76 [3]; GN76, read-out: diameter of inhibition zones) was 0 mm. The “diameter of inhibition zones” value (Proteus vulgaris GN76 [3]; [11]) was 0 mm, the “diameter of inhibition zones” value (Proteus vulgaris GN76 [3]; [12]) was 0 mm and the zone of inhibition at 100 µg/mL (Serratia marccscens T55; T55, read-out: diameter of inhibition zones) was 0 mm. For the same molecule, the “diameter of inhibition zones” value (Serratia marccscens T55; [11]) was 0 mm, the “diameter of inhibition zones” value (Serratia marccscens T55; [13]) was 0 mm and the “MIC of CER in combination” value ([4]; with OA-6129A 1.56 μg/ml) was 1250 µg/mL. For the same molecule, the “MIC of CER in combination” value ([4]; with OA-6129A 6.25 μg/ml) was 313 µg/mL, the “MIC of CER in combination” value ([4]; with OA-6129A 25 μg/ml) was < 5 µg/mL and the “MIC of CER in combination” value ([4]; with OA-6129A 50 μg/ml) was < 5 µg/mL.
For CC1(C)S[C@@H]2[C@H](NC(=O)Cc3ccccc3)C(=O)N2[C@H]1C(=O)O [PCG, benzylpenicillin], the “diameter of inhibition zones” value (Enterobacter cloacac 45; [11]) was 0 mm, the “diameter of inhibition zones” value (Enterobacter cloacac 45; [12]) was 0 mm and the “diameter of inhibition zones” value (Enterobacter cloacac 45; [14]) was 0 mm. The “diameter of inhibition zones” value [2, 11] was 0 mm, the “diameter of inhibition zones” value [2, 12] was 0 mm and the “diameter of inhibition zones” value [2, 14] was 0 mm. For the same molecule, the “diameter of inhibition zones” value (Proteus vulgaris GN76 [3]; [11]) was 0 mm, the “diameter of inhibition zones” value (Proteus vulgaris GN76 [3]; [12]) was 0 mm and the “diameter of inhibition zones” value (Proteus vulgaris GN76 [3]; [14]) was 0 mm. The “diameter of inhibition zones” value (Serratia marccscens T55; [11]) was 0 mm, the “diameter of inhibition zones” value (Serratia marccscens T55; [13]) was “tr” and the “diameter of inhibition zones” value (Serratia marccscens T55; [14]) was “tr”.
CC(O)[C@H]1C(=O)N2C(C(=O)O)=C(SCCNC(=O)CCNC(=O)C(O)C(C)(C)CO)C[C@H]12 (relative stereo) [OA-6129B2] was tested, and the zone of inhibition at 100 µg/mL (Enterobacter cloacac 45; Enterobacter, 45, plate: None, disc OA-6129B2, PS-5 100 μg/ml, CER, PCG 1000 μg/ml, read-out: diameter of inhibition zones) was 10 mm, the “diameter of inhibition zones” value (Enterobacter cloacac 45; [11]) was 15.0 mm and the “diameter of inhibition zones” value (Enterobacter cloacac 45; [12]) was 12.0 mm. The zone of inhibition at 100 µg/mL ([2]; GN346, plate: None, disc OA-6129B2, PS-5 100 μg/ml, CER, PCG 1000 μg/ml, read-out: diameter of inhibition zones) was 12 mm, the “diameter of inhibition zones” value [2, 11] was 16.0 mm and the “diameter of inhibition zones” value [2, 12] was 13.0 mm. The zone of inhibition at 100 µg/mL (Proteus vulgaris GN76 [3]; GN76, plate: None, disc OA-6129B2, PS-5 100 μg/ml, CER, PCG 1000 μg/ml, read-out: diameter of inhibition zones) was 0 mm, the “diameter of inhibition zones” value (Proteus vulgaris GN76 [3]; [11]) was 20.0 mm and the “diameter of inhibition zones” value (Proteus vulgaris GN76 [3]; [12]) was 19.5 mm. The zone of inhibition at 100 µg/mL (Serratia marccscens T55; T55, plate: None, disc OA-6129B2, PS-5 100 μg/ml, CER, PCG 1000 μg/ml, read-out: diameter of inhibition zones) was 12 mm, the “diameter of inhibition zones” value (Serratia marccscens T55; [11]) was 22.0 mm and the “diameter of inhibition zones” value (Serratia marccscens T55; [13]) was 12.0 mm. It also gave an MIC (E. coli RGN823) of 12.5 µg/mL (≈ 26.4 µM), an MIC (S. aureus Smith) of 12.5 µg/mL (≈ 26.4 µM) and an MIC (Ser. marcesceus T55) of 50 µg/mL (≈ 106 µM). It also gave an MIC [5] of 12.5 µg/mL (≈ 26.4 µM), an MIC (S. epidermidis) of 12.5 µg/mL (≈ 26.4 µM) and an MIC [6] of 6.25 µg/mL (≈ 13.2 µM). For the same molecule, the MIC [7] was > 100 µg/mL, the MIC (Comamonas terrigena B996) was 0.39 µg/mL (≈ 0.824 µM) and the MIC [8] was 25 µg/mL (≈ 52.8 µM). For the same molecule, the MIC [9] was 25 µg/mL (≈ 52.8 µM), the MIC [10] was 1.56 µg/mL (≈ 3.29 µM) and the MIC (Ps. aeruginosa NCTC10490) was > 100 µg/mL. The MIC (P. rettgeri P7) was 25 µg/mL (≈ 52.8 µM), the MIC (Providencia sp. P8) was 6.25 µg/mL (≈ 13.2 µM) and the MIC (Serratia marcesceus S18) was 25 µg/mL (≈ 52.8 µM). The MIC (Ent. cloacae 45) was 50 µg/mL (≈ 106 µM), the MIC (Sarcina lutea S19) was 6.25 µg/mL (≈ 13.2 µM) and the MIC (Ent. sp. E8) was 25 µg/mL (≈ 52.8 µM). For the same molecule, the MIC (Escherichia coli K-12) was 12.5 µg/mL (≈ 26.4 µM), the MIC (P. vulgaris GN76) was 50 µg/mL (≈ 106 µM) and the MIC (Alcaligenes Faecolis A1) was 6.25 µg/mL (≈ 13.2 µM). It also gave an MIC (S. aureus Russell) of 12.5 µg/mL (≈ 26.4 µM) and an MIC (Proteus mirabilis P6) of 50 µg/mL (≈ 106 µM).
